SMILES strings stand for the structures.

The text below walks through data of paper PMC10862865 (bioRxiv, 2024).

The assay addresses tau4RD (Homo sapiens, UniProt P10636). The assay is described as follows: Unseeded heparin-induced tau4RD aggregation, thioflavin T fluorescence. In kind it is biochemical. The conditions noted are these: 1:2 protein:compound molar ratio; ThT fluorescence.

Chain of tau4RD (P10636 561-685 limits assumed): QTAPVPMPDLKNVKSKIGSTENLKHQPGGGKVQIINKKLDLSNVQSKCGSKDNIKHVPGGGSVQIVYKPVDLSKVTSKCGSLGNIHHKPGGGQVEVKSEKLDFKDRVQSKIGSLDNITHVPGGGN

Turning to `O=C1c2ccccc2-n2c1nc1ccccc1c2=O` [compound 1, tryptanthrin], the “Inhibition of heparin-induced tau4RD aggregation in initial screen (in words)” value is “among the most potent inhibitors”.
